Assay type in all cases: cell-based
In assay [1] the test system is A431 cells. Description: In vitro tumor cell proliferation assay (Cell Titer-Glo) in A431 cells. The note with it: Homo sapiens, A-431, 72 h, A431 human epidermoid carcinoma overexpressing HER1; 72 hours exposure; read-out: IC50, activities in A431 cell lines. From the text:
(§1) The tumor cell proliferation assay used to test the compounds of the present invention involves a readout called Cell Titer-Glow® Luminescent Cell Viability Assay developed by Promega® (Cunningham, BA “A Growing Issue: Cell Proliferation Assays, Modern kits ease quantification of cell growth” The Scientist 2001, 15(13), 26, and Crouch, S P et al., “The use of ATP bioluminescence as a measure of cell proliferation and cytotoxicity” Journal of Immunological Methods 1993, 160, 81-88), that measures inhibition of cell proliferation. Generation of a luminescent signal corresponds to the amount of ATP present, which is directly proportional to the number of metabolically active (proliferating) cells. A431 cells [human epidermoid carcinoma, ATCC # HTB-20, overexpressing HER1 (EGFR, ErbB1)] and N87 [human gastric carcinoma, ATCC # CRL-1555, overexpressing HER2 (ErbB2) and HER1 (EGFR, ErbB1)] were plated at a density of 2.5×10^3 cells/well in 96 well black-clear bottom tissue culture plates in RPMI media with 10% Fetal Bovine Serum and incubated at 37° C. Twenty-four hours later, test compounds are added at a final concentration range from as high 100 μm to as low […] depend on the activities of the tested compounds in serial dilutions at a final DMSO concentration of 0.1%. Cells were incubated for 72 hours at 37° C. in complete growth media after addition of the test compound. After 72 hours of drug exposure, the plates were equilibrated to room temperature for approximately 30 min. Then, using a Promega Cell Titer Glo Luminescent® assay kit, lysis buffer containing 100 microliters of the enzyme luciferase and its substrate, luciferin mixture, was added to each well. The plates were mixed for 2 min on orbital shaker to ensure cell lysis and incubated for 10 min at room temperature to stabilize luminescence signal. The samples were read on VICTOR2 using Luminescence protocol, and analyzed with Analyze5 software to generate IC50 values.
(ATP-based viability assays read luminescence as a measure of living cells.)

Assay [2] deals with N87. Briefly: In vitro tumor cell proliferation assay (Cell Titer-Glo) in N87 cells. The following applies: N87 human gastric carcinoma overexpressing HER2 and HER1; 72 hours exposure; read-out: IC50, activities in N87 cell lines.
Text: as §1

For assay [3], the system named is H1975 cells. Description: In vitro tumor cell proliferation assay (Cell Titer-Glo) in H1975 cells. The following applies: NCI-H1975; H1975 human NSCLC expressing mutant HER1 (L858R,T790M); 72 hours exposure; read-out: IC50, activities in H 1975 cell lines. From the text: The tumor cell proliferation assay used to test the compounds of the present invention involves a readout called Cell Titer-Glow® Luminescent Cell Viability Assay developed by Promega® (Cunningham, BA “A Growing Issue: Cell Proliferation Assays, Modern kits ease quantification of cell growth” The Scientist 2001, 15(13), 26, and Crouch, S P et al., “The use of ATP bioluminescence as a measure of cell proliferation and cytotoxicity” Journal of Immunological Methods 1993, 160, 81-88), that measures inhibition of cell proliferation. Generation of a luminescent signal corresponds to the amount of ATP present, which is directly proportional to the number of metabolically active (proliferating) cells.
H1975 cells [human non small cell lung carcinoma, ATCC # CRL-5908, expressing mutant HER1 [(EGFR, ErbB1)(L858R,T790M] were plated at a density of 3×10^3 cells/well in 96 well black-clear bottom tissue culture plates in RPMI media with 10% Fetal Bovine Serum and incubated at 37° C. Twenty-four hours later, test compounds are added at a final concentration range from as high 10 uM to as low 64 pM depending on the activities of the tested compounds in serial dilutions at a final DMSO concentration of 0.1%. Cells were incubated for 72 hours at 37° C. in complete growth media after addition of the test compound. After 72 hours of drug exposure, the plates were equilibrated to room temperature for approximately 30 min. Then, using a Promega Cell Titer Glo Luminescent® assay kit, lysis buffer containing 100 microliters of the enzyme luciferase and its substrate, luciferin mixture, was added to each well. The plates were mixed for 2 min on orbital shaker to ensure cell lysis and incubated for 10 min at room temperature to stabilize luminescence signal. The samples were read on VICTOR2 using Luminescence protocol, and analyzed with Analyze5 software to generate IC50 values.

Some results are limits rather than exact numbers.

Data on 19 compounds can be found in patent publication US8501755B2, “Tetrahydropyridothienopyrimidine compounds and methods of use thereof” (Bayer Intellectual Property GmbH, priority 2006, dated 2013).

As a reminder, the IC50 is the concentration needed to halve the response being measured. In the case of `CN(C)C/C=C/C(=O)N1CCc2c(sc3ncnc(Nc4ccc(C#N)c(Cl)c4)c23)C1` [Example 173, 2-chloro-4-({7-[(2E)-4-(dimethylamino)but-2-enoyl]-5,6,7,8-tetrahydropyrido [4′,3′:4,5]thieno[2,3-d]pyrimidin-4-yl}amino)benzonitrile], the IC50 is 1 to 10 µM in assay [1], less than 0.2 µM in assay [2] and 1 to 10 µM in assay [3].
Consider `C=CC(=O)N1CCc2c(sc3ncnc(Nc4ccc(F)c(Cl)c4)c23)C1` [Example 22, 7-acryloyl-N-(3-chloro-4-fluorophenyl)-5,6,7,8-tetrahydropyrido [4′,3′:4,5]thieno[2,3-d]pyrimidin-4-amine], for which the IC50 was less than 0.2 µM in assay [1], less than 0.2 µM in assay [2] and 0.2 to 1 µM in assay [3].
For `O=C(/C=C/CN1CCCCC1)N1CCc2c(sc3ncnc(Nc4cccc(Br)c4)c23)C1` [Example 196, N-(3-bromophenyl)-7-[(2E)-4-piperidin-1-ylbut-2-enoyl]-5,6,7,8-tetrahydropyrido [4′,3′:4,5]thieno[2,3-d]pyrimidin-4-amine], the IC50 in assay [1] was less than 0.2 µM; in assay [2], less than 0.2 µM; in assay [3] it was 0.2 to 1 µM.
In the case of `CN(C)C/C=C/C(=O)N1CCc2c(sc3ncnc(Nc4ccc(F)c(Cl)c4)c23)C1` [Example 7, N-(3-chloro-4-fluorophenyl)-7-[(2E)-4-(dimethylamino)but-2-enoyl]-5,6,7,8-tetrahydropyrido[4′,3′:4,5]thieno[2,3-d]pyrimidin-4-amine], the IC50 in assay [1] is less than 0.2 µM; in assay [2], less than 0.2 µM; in assay [3], 0.2 to 1 µM.
Regarding `CC1CCCC(C)N1C/C=C/C(=O)N1CCc2c(sc3ncnc(Nc4ccc(F)c(Cl)c4)c23)C1` (stereo not shown) [Example 60, N-(3-chloro-4-fluorophenyl)-7-[(2E)-4-(2,6-dimethylpiperidin-1-yl)but-2-enoyl]-5,6,7,8-tetrahydropyrido [4′,3′:4,5]thieno[2,3-d]pyrimidin-4-amine], the IC50 in assay [1] is 0.2 to 1 µM; in assay [2], less than 0.2 µM; in assay [3] it was 0.2 to 1 µM.
Turning to `CN(C)C/C=C/C(=O)N1CCc2c(sc3ncnc(Nc4cccc(Br)c4)c23)C1` [Example 160, N-(3-bromophenyl)-7-[(2E)-4-(dimethylamino)but-2-enoyl]-5,6,7,8-tetrahydropyrido [4′,3′:4,5]thieno[2,3-d]pyrimidin-4-amine], the IC50 in assay [1], in assay [2] and in assay [3] was less than 0.2 µM throughout.
On to `O=C(/C=C/CN1CCSC1)N1CCc2c(sc3ncnc(Nc4ccc(F)c(Cl)c4)c23)C1` [Example 35, N-(3-chloro-4-fluorophenyl)-7-[(2E)-4-(1,3-thiazolidin-3-yl)but-2-enoyl]-5,6,7,8-tetrahydropyrido [4′3′:4,5]thieno[2,3-d]pyrimidin-4-amine], for which the IC50 in assay [1] is 1 to 10 µM; in assay [2], 0.2 to 5 µM; in assay [3] it was 1 to 10 µM.
Take `O=C(/C=C/CN1CCOCC1)N1CCc2c(sc3ncnc(Nc4ccc(F)c(Cl)c4)c23)C1` [Example 6, N-(3-chloro-4-fluorophenyl)-7-[(2E)-4-morpholin-4-ylbut-2-enoyl]-5,6,7,8-tetrahydropyrido[4′,3′:4,5]thieno[2,3-d]pyrimidin-4-amine]: the IC50 in assay [1] is less than 0.2 µM; in assay [2], less than 0.2 µM; in assay [3] it was 1 to 10 µM.
For `O=C(/C=C/CN1CCOCC1)N1CCc2c(sc3ncnc(Nc4ccc5c(ccn5Cc5ccccc5)c4)c23)C1` [Example 105, N-(1-benzyl-1H-indol-5-yl)-7-[(2E)-4-morpholin-4-ylbut-2-enoyl]-5,6,7,8-tetrahydropyrido [4′,3′:4,5]thieno[2,3-d]pyrimidin-4-amine], the results for the IC50 in assay [1], in assay [2] and in assay [3] were less than 0.2 µM, less than 0.2 µM and 0.2 to 1 µM, respectively.
Take `CN(C)CC/C=C/C(=O)N1CCc2c(sc3ncnc(Nc4ccc(F)c(Cl)c4)c23)C1` [Example 153]: the figures for the IC50 in assay [1], in assay [2] and in assay [3] were 1 to 10 µM, less than 0.2 µM and 1 to 10 µM, respectively.
With `CN(C/C=C/C(=O)N1CCc2c(sc3ncnc(Nc4ccc5c(ccn5Cc5ccccc5)c4)c23)C1)C(C)(C)C` [Example 131, N-(1-benzyl-1H-indol-5-yl)-7-{(2E)-4-[tert-butyl(methyl)amino]but-2-enoyl}-5,6,7,8-tetrahydropyrido [4′,3′:4,5]thieno[2,3-d]pyrimidin-4-amine], in assay [2], the IC50 was less than 0.2 µM.
Regarding `CC(C)N(C)C/C=C/C(=O)N1CCc2c(sc3ncnc(Nc4ccc(F)c(Cl)c4)c23)C1` [Example 36, N-(3-chloro-4-fluorophenyl)-7-{(2E)-4-[isopropyl(methyl)amino]but-2-enoyl}-5,6,7,8-tetrahydropyrido[4′,3′:4,5]thieno[2,3-d]pyrimidin-4-amine], the IC50 in assay [2] and in assay [3] was less than 0.2 µM each time.
With `CC1CCCCN1C/C=C/C(=O)N1CCc2c(sc3ncnc(Nc4ccc(Cl)c(Cl)c4)c23)C1` (stereo not shown) [Example 210, N-(3,4-dichlorophenyl)-7-[(2E)-4-(2-methylpiperidin-1-yl)but-2-enoyl]-5,6,7,8-tetrahydropyrido [4′,3′:4,5]thieno[2,3-d]pyrimidin-4-amine], the IC50 in assay [2] is less than 0.2 µM.
For the compound `C#Cc1cccc(Nc2ncnc3sc4c(c23)CCN(C(=O)C#CCN2CCOCC2)C4)c1` [Example 138, N-(3-ethynylphenyl)-7-(4-morpholin-4-ylbut-2-ynoyl)-5,6,7,8-tetrahydropyrido [4′,3′:4,5]thieno[2,3-d]pyrimidin-4-amine], the IC50 in assay [1] is 0.2 to 1 µM; in assay [2], less than 0.2 µM.
Take `CN(C/C=C/C(=O)N1CCc2c(sc3ncnc(Nc4ccc(F)c(Cl)c4)c23)C1)C(C)(C)C` [Example 55, 7-{(2E)-4-[tert-butyl(methyl)amino]but-2-enoyl}-N-(3-chloro-4-fluorophenyl)-5,6,7,8-tetrahydropyrido [4′,3′:4,5]thieno[2,3-d]pyrimidin-4-amine]: the results for the 50% inhibitory concentration (IC50) in assay [2] and in assay [3] were less than 0.2 µM and 0.2 to 1 µM, respectively.
As to `O=C(/C=C/Cn1ccnc1)N1CCc2c(sc3ncnc(Nc4ccc(F)c(Cl)c4)c23)C1` [Example 34, N-(3-chloro-4-fluorophenyl)-7-[(2E)-4-(1H-imidazol-1-yl)but-2-enoyl]-5,6,7,8-tetrahydropyrido [4′,3′:4,5]thieno[2,3-d]pyrimidin-4-amine], the IC50 in assay [1] and in assay [3] was 1 to 10 µM throughout.
With `O=C(/C=C/CN1CCOCC1)N1CCc2c(sc3ncnc(Nc4ccc5c(ccn5Cc5ccccn5)c4)c23)C1` [Example 120, 7-[(2E)-4-morpholin-4-ylbut-2-enoyl]-N-[1-(pyridin-2-ylmethyl)-1H-indol-5-yl]-5,6,7,8-tetrahydropyrido [4′,3′:4,5]thieno[2,3-d]pyrimidin-4-amine], the IC50 was 0.2 to 1 µM in assay [1] and less than 0.2 µM in assay [2].
For the compound `C#Cc1cccc(Nc2ncnc3sc4c(c23)CCN(C(=O)/C=C/CN2CCN(C)CC2)C4)c1` [Example 18, N-(3-ethynylphenyl)-7-[(2E)-4-(4-methylpiperazin-1-yl)but-2-enoyl]-5,6,7,8-tetrahydropyrido [4′,3′:4,5]thieno[2,3-d]pyrimidin-4-amine], the IC50 in assay [1] and in assay [2] was less than 0.2 µM each time.
In the case of `O=C(C#CCN1CCOCC1)N1CCc2c(sc3ncnc(Nc4ccc(F)c(Cl)c4)c23)C1` [Example 137, N-(3-chloro-4-fluorophenyl)-7-(4-morpholin-4-ylbut-2-ynoyl)-5,6,7,8-tetrahydropyrido [4′,3′:4,5]thieno[2,3-d]pyrimidin-4-amine], the 50% inhibitory concentration (IC50) was 1 to 10 µM in assay [1] and less than 0.2 µM in assay [2].
